Some test systems named below: A498; CCRF-CEM; DU-145; HCC 2998; HL-60; KM12; NCI-H460; OVCAR-8; SF-539; SNB-75; SW-620; UACC-62; A549; EKVX; OVCAR-3; OVCAR-5.
Assay in all cases: inhibition of tumour cell growth, NCI panel, 48 h

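1) Cells in 96-well plates. 2) Compound, 48 h, 5 concentrations. 3) Linear interpolation between surrounding doses. 4) Unreached endpoint = highest concentration. Here, GI50 denotes the concentration required for 50% inhibition of growth.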 Active and inactive are the calls of the source. No stated cut-off is given here; in the data, active = GI50 up to about 1.1 µM and inactive = higher.

In the case of `O=c1n(Cc2ccccc2)c(=O)n2c(=O)n(Cc3ccccc3)c(=O)n12`, the GI50 with A498, in the assay on CCRF-CEM, with DU-145, in the assay on HCC 2998, in the assay with HL-60 and in the assay with KM12 was > 100 µM (inactive) each time. Further, the GI50 was > 100 µM (inactive) in the assay on NCI-H460; > 100 µM (inactive) in the assay with OVCAR-8; 39.8 µM (inactive) in the assay with SF-539; > 100 µM (inactive) with SNB-75; > 100 µM (inactive) in the assay on SW-620; > 100 µM (inactive) in the assay on UACC-62.
Consider `Cc1c(S(=O)(=O)N/C(=N\O)Nc2ccc(Cl)c(Cl)c2)sc2ccc(Cl)cc12`, for which the GI50 in the assay with A498 was 18.1 µM (inactive); in the assay with A549, 24.7 µM (inactive); in the assay on CCRF-CEM, 26.8 µM (inactive); with DU-145, 18.8 µM (inactive); in the assay with EKVX it was 12.9 µM (inactive); in the assay with HCC 2998, 19.9 µM (inactive). Moreover, the GI50 in the assay on HL-60 was 26.7 µM (inactive); in the assay on KM12 it was 16.9 µM (inactive); in the assay with OVCAR-3 it was 14.5 µM (inactive); in the assay on OVCAR-5 it was 21.6 µM (inactive); in the assay on OVCAR-8 it was 21.9 µM (inactive); with SF-539, 23 µM (inactive). For the same compound, the values for the GI50 in the assay with SW-620 and in the assay with UACC-62 were 39.4 µM (inactive) and 17.7 µM (inactive), respectively.
Consider `O=C1CC(C(OCc2ccccc2)C(OCc2ccccc2)C(COCc2ccccc2)OCc2ccccc2)CC(=O)N1` (stereo unspecified), for which the GI50 is > 100 µM (inactive) in the assay with A498; 72.4 µM (inactive) with A549; > 75 µM (inactive) in the assay on DU-145; > 100 µM (inactive) with EKVX; > 75 µM (inactive) with HCC 2998; > 100 µM (inactive) in the assay on HL-60. The GI50 was > 75 µM (inactive) in the assay with NCI-H460; > 75 µM (inactive) in the assay on OVCAR-5; > 75 µM (inactive) in the assay with OVCAR-8; > 100 µM (inactive) in the assay with SF-539; > 100 µM (inactive) with SW-620.
`BrC1(c2ccccc2)C[n+]2c(-c3ccccc3)cc(-c3ccccc3)cc2-c2ccccc21` (stereo unspecified): the GI50 is 1.81 µM (inactive) in the assay on A498; 0.929 µM (active) with A549; 0.52 µM (active) with CCRF-CEM; 0.931 µM (active) with DU-145; 0.457 µM (active) in the assay on EKVX; 0.111 µM (active) in the assay on HCC 2998. Further, the GI50 in the assay with HL-60 is 0.168 µM (active); in the assay on KM12, 0.299 µM (active); in the assay on NCI-H460, 0.444 µM (active); in the assay with OVCAR-3, 0.0489 µM (active); in the assay with OVCAR-5, 1.27 µM (inactive); with OVCAR-8 it was 0.36 µM (active). The GI50 with SF-539 was 0.764 µM (active); with SNB-75, 0.236 µM (active); in the assay with SW-620, 0.426 µM (active).
With `COC(=O)C#CC1(O)C=CC(=O)C=C1`, the GI50 was 34 µM (inactive) in the assay with A498; 9.46 µM (inactive) in the assay with A549; 0.106 µM (active) in the assay with CCRF-CEM; 1.38 µM (inactive) in the assay on DU-145; 4.12 µM (inactive) in the assay with EKVX; 2.54 µM (inactive) in the assay on HCC 2998. The GI50 is 0.843 µM (active) with KM12; 2.71 µM (inactive) with NCI-H460; 0.367 µM (active) in the assay with OVCAR-3; 1.42 µM (inactive) with OVCAR-5; 0.203 µM (active) in the assay on OVCAR-8; 1.12 µM (active) in the assay on SF-539. For the same compound, the GI50 was 3.9 µM (inactive) with SNB-75, 0.299 µM (active) with SW-620 and 0.865 µM (active) in the assay with UACC-62.
Regarding `CCCCSC1=N/C(=C\c2ccccc2O)C(Cl)=N1`, the GI50 in the assay with A498, in the assay with A549, in the assay with DU-145, in the assay with EKVX, with HCC 2998 and in the assay with HL-60 was > 100 µM (inactive) throughout. The GI50 in the assay with KM12, in the assay on NCI-H460, in the assay with OVCAR-3, with OVCAR-5, with OVCAR-8 and in the assay with SF-539 was > 100 µM (inactive) in each case. In addition, the GI50 with SNB-75, in the assay on SW-620 and in the assay with UACC-62 was > 100 µM (inactive) throughout.
As for `CNC(C#N)c1ccc(OC)cc1` (stereo unspecified), the GI50 was > 100 µM (inactive) with A498; > 100 µM (inactive) in the assay with A549; 53.3 µM (inactive) in the assay with CCRF-CEM; > 100 µM (inactive) in the assay on DU-145; > 100 µM (inactive) in the assay with EKVX; > 100 µM (inactive) in the assay on HCC 2998. Besides, the GI50 with HL-60 was 28.6 µM (inactive); with KM12 it was 78.9 µM (inactive); in the assay with NCI-H460, > 100 µM (inactive); in the assay with OVCAR-3, 61 µM (inactive); in the assay on OVCAR-5 it was > 100 µM (inactive); in the assay with OVCAR-8, > 100 µM (inactive). In addition, the figures for the GI50 in the assay with SF-539, in the assay with SW-620 and with UACC-62 were > 100 µM (inactive), 94.2 µM (inactive) and > 100 µM (inactive), respectively.
Consider `CN(C)C1(C(=O)O)CC1`, for which the GI50 with A498, in the assay with A549, in the assay on CCRF-CEM, with DU-145, in the assay on EKVX and in the assay on HCC 2998 was > 100 µM (inactive) each time. Also, the GI50 in the assay on HL-60, in the assay on NCI-H460, in the assay on OVCAR-3, with OVCAR-5, in the assay with OVCAR-8 and with SF-539 was > 100 µM (inactive) throughout. Also, the GI50 in the assay on SNB-75 and in the assay with SW-620 was > 100 µM (inactive) in each case.
For `CC(C)(C)OC(=O)NC(CSCc1ccc(C(=O)c2ccccc2)cc1)C(=O)O` (stereo unspecified), the GI50 in the assay on A498, in the assay with A549, in the assay on CCRF-CEM, in the assay with DU-145, with EKVX and in the assay on HCC 2998 was > 100 µM (inactive) in each case. Moreover, the GI50 with HL-60, with KM12, in the assay with NCI-H460, in the assay on OVCAR-3, in the assay on OVCAR-5 and in the assay on OVCAR-8 was > 100 µM (inactive) each time. Also, the GI50 in the assay on SF-539, in the assay with SNB-75 and with SW-620 was > 100 µM (inactive) each time.
Turning to `N=c1oc2ccc(Cl)cc2cc1C(N)=O`, the GI50 with A498 is 32.7 µM (inactive); with A549 it was 42.6 µM (inactive); in the assay on CCRF-CEM, 40.6 µM (inactive); in the assay with DU-145, 35.9 µM (inactive); with HCC 2998, 25.7 µM (inactive); in the assay on HL-60, 54.2 µM (inactive). The GI50 is 24.2 µM (inactive) in the assay on KM12; 30.8 µM (inactive) in the assay on NCI-H460; 18.2 µM (inactive) with OVCAR-3; 27 µM (inactive) in the assay with OVCAR-5; 33.2 µM (inactive) in the assay with OVCAR-8; 31.3 µM (inactive) in the assay with SF-539. Besides, the GI50 was 26.1 µM (inactive) in the assay on SNB-75, 45.9 µM (inactive) with SW-620 and 16.8 µM (inactive) in the assay on UACC-62.
In the case of `O=C1c2ccccc2C(=O)N1n1c(Cc2ccccc2)n[nH]c1=O`, the GI50 in the assay on A498, in the assay with A549, in the assay on CCRF-CEM, in the assay with DU-145, with EKVX and in the assay with HCC 2998 was > 100 µM (inactive) in each case. In addition, the GI50 in the assay on KM12, with NCI-H460, in the assay on OVCAR-3, in the assay with OVCAR-5, in the assay on OVCAR-8 and in the assay with SF-539 was > 100 µM (inactive) each time. Also, the GI50 in the assay with SNB-75, in the assay on SW-620 and in the assay on UACC-62 was > 100 µM (inactive) in each case.
For the compound `Cc1ccc2nc(C(=O)O)c(=O)[nH]c2c1`, the GI50 in the assay with A498, in the assay on A549, in the assay with CCRF-CEM, in the assay on DU-145, with EKVX and in the assay with HCC 2998 was > 100 µM (inactive) throughout. Moreover, the GI50 in the assay with HL-60, with KM12, in the assay on NCI-H460, in the assay on OVCAR-3, with OVCAR-5 and in the assay on OVCAR-8 was > 100 µM (inactive) in each case. Further, the GI50 in the assay with SF-539, with SW-620 and with UACC-62 was > 100 µM (inactive) throughout.
For the compound `c1ccc2c(Nc3ncco3)cccc2c1`, the GI50 in the assay with A498, in the assay on A549, with CCRF-CEM, in the assay with DU-145, in the assay with EKVX and in the assay on HCC 2998 was > 10 µM (inactive) each time. Also, the GI50 in the assay with KM12, in the assay on NCI-H460, in the assay on OVCAR-3, with OVCAR-5, with OVCAR-8 and with SF-539 was > 10 µM (inactive) each time. Also, the GI50 with SNB-75, in the assay with SW-620 and in the assay on UACC-62 was > 10 µM (inactive) each time.
As for `CCCCCCCCCCCCCCCCCCNc1nc(=O)n(C2CC(O)C(COP(=O)(O)O)O2)cc1F` (stereo unspecified), the GI50 in the assay on A498 is 6.27 µM (inactive); in the assay on A549 it was 17.4 µM (inactive); with CCRF-CEM, 38 µM (inactive); in the assay on DU-145 it was > 57.4 µM (inactive); in the assay on EKVX, 99.5 µM (inactive); in the assay with HCC 2998 it was 15 µM (inactive). Also, the GI50 in the assay with KM12 is > 72.8 µM (inactive); in the assay on NCI-H460, 35.5 µM (inactive); in the assay on OVCAR-3, > 100 µM (inactive); with OVCAR-5 it was > 100 µM (inactive); with OVCAR-8, 27.4 µM (inactive); with SF-539, 15 µM (inactive). Further, the GI50 in the assay with SNB-75 was > 100 µM (inactive); in the assay with SW-620, > 100 µM (inactive); with UACC-62 it was > 78.2 µM (inactive).

Source of the values: ChEMBL document CHEMBL1201862, “PubChem BioAssay data set” (2004).
